Drawing on patent US20060276464A1, “Diarylsulfone sulfonamides and use thereof” (Wyeth, priority 2005, published 2006), this text covers EC50, fold induction and IC50 for 18 compounds.

Broadly, the EC50 is the concentration that produces a half-maximal response. High values mean a less potent agent, low ones a more potent agent. As a reminder, the IC50 is the concentration that gives 50% inhibition. High values mean lower potency, low ones higher potency.

Experiment [1] has as its target T1, SFRP-1 (Homo sapiens, UniProt Q8N474).
T1 sequence (Q8N474 32-314): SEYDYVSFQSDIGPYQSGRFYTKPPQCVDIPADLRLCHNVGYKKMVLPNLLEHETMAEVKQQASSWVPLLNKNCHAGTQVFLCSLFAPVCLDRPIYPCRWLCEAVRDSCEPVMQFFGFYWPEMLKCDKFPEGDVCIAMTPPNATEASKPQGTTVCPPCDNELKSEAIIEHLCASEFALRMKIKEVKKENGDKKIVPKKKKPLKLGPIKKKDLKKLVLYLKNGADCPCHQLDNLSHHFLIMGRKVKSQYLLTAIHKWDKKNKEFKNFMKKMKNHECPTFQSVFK
Kind of experiment: Cell-based assay for in vitro measurement of SFRP-1/SARP2 antagonist activity (U2OS cells co-transfected with 16x TCF-tk-Luciferase reporter, Wnt and hSFRP-1).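 For all read-outs here: U2OS cells co-transfected with a TCF-tk luciferase reporter, a Wnt vector, hSFRP-1 or empty vector and CMV-βgal, luciferase luminescence read in cell lysates alongside βgal activity.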 The settings on record: for fold induction at 10 µM: U2OS, read-out: Fold Induction with SFRP-1, U2OS cells, single dose 10 μM, luciferase reporter, fold induction over SFRP-1 control.

The target of experiment [2] is T1, SFRP-1. Kind of experiment: Fluorescence polarization binding assay (competitive displacement of a probe compound from SFRP-1).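 Note: test compound competes with a fluorescent probe held by SFRP-1, seen as a drop in probe anisotropy after incubation in darkness, with anisotropy as function of rising compound dose.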 The settings on record: fluorescence anisotropy, 45 nM SFRP-1, 20 nM probe. (In general: Polarisation of emitted light reports the rotation of a fluorescent probe.)

As to `CC(C)c1ccc(S(=O)(=O)c2ccccc2)cc1S(=O)(=O)NCCc1cccnc1` [Example 672, 2-isopropyl-5-(phenylsulfonyl)-N-(2-pyridin-3-ylethyl)benzenesulfonamide], in experiment [1], the 50% effective concentration (EC50) is 3.12 µM and the fold induction at 10 µM was determined as 4.2. In addition, the IC50 in experiment [2] stood at 0.3 µM.
As for `O=S(=O)(NCCc1cccnc1)c1cc(S(=O)(=O)c2ccccc2)ccc1C(F)(F)F` [Example 677, 5-(phenylsulfonyl)-N-(2-pyridin-3-ylethyl)-2-(trifluoromethyl)benzenesulfonamide], in experiment [1], the EC50 worked out at 0.489 µM and the fold induction at 10 µM was found to be 3.8. In addition, the IC50 in experiment [2] worked out at 0.16 µM.
For the compound `N#CCCNS(=O)(=O)c1cc(S(=O)(=O)c2ccccc2)ccc1C(F)(F)F` [Example 679, N-(2-cyanoethyl)-5-(phenylsulfonyl)-2-(trifluoromethyl)benzenesulfonamide], in experiment [1], the EC50 turned out to be 0.449 µM and the fold induction at 10 µM was found to be 3.4. For the same compound, the IC50 in experiment [2] is 0.25 µM.
Turning to `O=S(=O)(NCCO)c1cc(S(=O)(=O)c2ccccc2)ccc1C(F)(F)F` [Example 681, N-(2-hydroxyethyl)-5-(phenylsulfonyl)-2-(trifluoromethyl)benzenesulfonamide], in experiment [1], the EC50 stood at 4.3 µM and the fold induction at 10 µM turned out to be 3.4. The IC50 in experiment [2] amounted to 1.1 µM.
For `O=S(=O)(NCC(O)c1ccccc1)c1cc(S(=O)(=O)c2ccccc2)ccc1C(F)(F)F` (stereo not drawn) [Example 682, N-(2-hydroxy-2-phenylethyl)-5-(phenylsulfonyl)-2-(trifluoromethyl)benzenesulfonamide], in experiment [1], the midpoint of the response, the EC50, lay at 0.765 µM and the fold induction at 10 µM was determined as 1.2. This compound also came in with an IC50 in experiment [2] of 0.25 µM.
Turning to `CC(CO)NS(=O)(=O)c1cc(S(=O)(=O)c2ccccc2)ccc1C(F)(F)F` (stereo not drawn) [Example 683, N-(2-hydroxy-1-methylethyl)-5-(phenylsulfonyl)-2-(trifluoromethyl)benzenesulfonamide], in experiment [1], a half-maximal response (EC50) required 3.1 µM and the fold induction at 10 µM amounted to 3.7. Moreover, in experiment [2], the IC50 came to 1.2 µM.
The like results for `C[C@@H](NS(=O)(=O)c1cc(S(=O)(=O)c2ccccc2)ccc1C(F)(F)F)[C@@H](O)c1ccccc1` [Example 686, N-[(1R,2S)-2-hydroxy-1-methyl-2-phenylethyl]-5-(phenylsulfonyl)-2-(trifluoromethyl)benzenesulfonamide] were, in that order, 1.75 µM, 3.5 and 0.5 µM.
For `CC(C)(C)OC(=O)N1CCC(NS(=O)(=O)c2cc(S(=O)(=O)c3ccccc3)ccc2C(F)(F)F)CC1` [Example 687, tert-butyl 4-({[5-(phenylsulfonyl)-2-(trifluoromethyl)phenyl]sulfonyl}amino)piperidine-1-carboxylate] the same measures were 0.261 µM, 3.2 and 0.5 µM.
With `CC(C)c1ccc(S(=O)(=O)c2ccc(F)cc2)cc1S(=O)(=O)NC1CCN(C(=S)Nc2cccc3ccccc23)CC1` [Example 690, 4-[({5-[(4-fluorophenyl)sulfonyl]-2-isopropylphenyl}sulfonyl)amino]-N-1-naphthylpiperidine-1-carbothioamide], in experiment [1], the EC50 came out at 8.4 µM and the fold induction at 10 µM was found to be 2.3. The IC50 in experiment [2] stood at 3 µM.
The like results for `CC(C)c1ccc(S(=O)(=O)c2ccc(F)cc2)cc1S(=O)(=O)NC1CCN(C(=S)Nc2ccccc2F)CC1` [Example 691, N-(2-fluorophenyl)-4-[({5-[(4-fluorophenyl)sulfonyl]-2-isopropylphenyl}sulfonyl)amino]piperidine-1-carbothioamide] were, in that order, 8.6 µM, 2.8 and 1 µM.
For `Cc1ccccc1NC(=S)N1CCC(NS(=O)(=O)c2cc(S(=O)(=O)c3ccc(F)cc3)ccc2C(C)C)CC1` [Example 692, 4-[({5-[(4-fluorophenyl)sulfonyl]-2-isopropylphenyl}sulfonyl)amino]-N-(2-methylphenyl)piperidine-1-carbothioamide], in experiment [1], the EC50 was found to be 8.5 µM and the fold induction at 10 µM worked out at 3. Also, in experiment [2], the 50% inhibitory concentration (IC50) worked out at 1.7 µM.
Turning to `CCOC(=O)NC(=S)N1CCC(NS(=O)(=O)c2cc(S(=O)(=O)c3ccc(F)cc3)ccc2C(C)C)CC1` [Example 693, ethyl({4-[({5-[(4-fluorophenyl)sulfonyl]-2-isopropylphenyl}sulfonyl)amino]piperidin-1-yl}carbonothioyl)carbamate], in experiment [1], the response was half-maximal at 1.08 µM (EC50) and the fold induction at 10 µM turned out to be 3.5. In experiment [2], this compound yielded a half-maximal inhibitory concentration (IC50) of 0.4 µM.
The like results for `CCCCNC(=S)N1CCC(NS(=O)(=O)c2cc(S(=O)(=O)c3ccc(F)cc3)ccc2C(C)C)CC1` [Example 694, N-butyl-4-[({5-[(4-fluorophenyl)sulfonyl]-2-isopropylphenyl}sulfonyl)amino]piperidine-1-carbothioamide] were, in that order, 8.7 µM, 2.6 and 2.9 µM.
Take `COc1ccc(NC(=S)N2CCC(NS(=O)(=O)c3cc(S(=O)(=O)c4ccc(F)cc4)ccc3C(C)C)CC2)cc1` [Example 695, 4-[({5-[(4-fluorophenyl)sulfonyl]-2-isopropylphenyl}sulfonyl)amino]-N-(4-methoxyphenyl)piperidine-1-carbothioamide]: in experiment [1], it took 7.1 µM to reach a half-maximal effect (EC50) and the fold induction at 10 µM was 2.1. For the same compound, the IC50 in experiment [2] turned out to be 0.19 µM.
The like results for `COC(=O)c1ccc(NC(=S)N2CCC(NS(=O)(=O)c3cc(S(=O)(=O)c4ccc(F)cc4)ccc3C(C)C)CC2)cc1` [Example 696, methyl 4-[({4-[({5-[(4-fluorophenyl)sulfonyl]-2-isopropylphenyl}sulfonyl)amino]piperidin-1-yl}carbonothioyl)amino]benzoate] were, in that order, 14.7 µM, 2.2 and 1.1 µM.
The like results for `COC(=O)CNC(=S)N1CCC(NS(=O)(=O)c2cc(S(=O)(=O)c3ccc(F)cc3)ccc2C(C)C)CC1` [Example 697, methyl N-({4-[({5-[(4-fluorophenyl)sulfonyl]-2-isopropylphenyl}sulfonyl)amino]piperidin-1-yl}carbonothioyl)glycinate] were, in that order, 0.452 µM, 3.7 and 0.4 µM.
For the compound `CC(C)c1ccc(S(=O)(=O)c2ccc(F)cc2)cc1S(=O)(=O)NC1CCN(C(=S)NCCN2CCOCC2)CC1` [Example 698, 4-[({5-[(4-fluorophenyl)sulfonyl]-2-isopropylphenyl}sulfonyl)amino]-N-(2-morpholin-4-ylethyl)piperidine-1-carbothioamide], in experiment [1], the EC50 turned out to be 0.609 µM and the fold induction at 10 µM was found to be 3. In addition, the IC50 in experiment [2] is 0.7 µM.
For `CC(C)c1ccc(S(=O)(=O)c2ccc(F)cc2)cc1S(=O)(=O)NC1CCN(C(=S)Nc2cccc([N+](=O)[O-])c2)CC1` [Example 699, 4-[({5-[(4-fluorophenyl)sulfonyl]-2-isopropylphenyl}sulfonyl)amino]-N-(3-nitrophenyl)piperidine-1-carbothioamide] the same measures were 9.8 µM, 2.9 and 1.6 µM.
